According to patent US20230159538A1, “PYRROLIDINE-PYRAZOLES AS PYRUVATE KINASE ACTIVATORS” (Global Blood Therapeutics, Inc., priority 2020, published 2023):

Target: T1, Human pyruvate kinase R (PKR) (Homo sapiens, UniProt P30613)
T1 construct: Human pyruvate kinase R (PKR), residues 14-574; 6x-His (N, cleaved yes); 8x-Arg (N, cleaved yes); SUMO (N, cleaved yes); host or cells: E. coli
Assay: Biochemical assay for activation of pyruvate kinase R (Kinase-Glo luminescence, ATP generation)
Details: for AC50: 0.1 nM PKR, 2 mM FBP, 0.3 mM ADP, 0.1 mM PEP; for PKR % activation: maximal activation level relative to the activation level achieved by AG-348 @ 10 μM
Procedure: Proteins were translated as fusions with 6×-His, 8×-Arg, and SUMO at the N-terminus. […] All proteins were cloned, expressed in E. coli, and purified using similar protocols. Cells were grown at 30° C. in Luria-Bertani broth supplemented with 0.4% glucose to OD600=0.8 and induced with 0.4 mM IPTG at 16° C. for 18 hours. Cells were harvested by centrifugation, resuspended in 50 mM potassium phosphate pH 8.0, 500 mM NaCl, 25 mM imidazole pH 8.0, and 3 mM β-mercaptoethanol. Cells were lysed using a LM20 microfluidizer from Microfluidics (Westwood, Mass.). The crude lysate was immediately supplemented with 0.2 mM phenylmethylsulfonyl fluoride (PMSF) and centrifuged at 20,000 g for 20 minutes. The soluble fraction was subsequently incubated with 2 mL Ni-NTA (GE Healthcare) per 1,000 ODs for 1 hour at 4° C. Following incubation with the Ni-NTA resin, lysate was removed by pelleting resin at 2,500 g for 3 minutes and washed 3 times with 9 bed volumes of 50 mM potassium phosphate pH 8.0, 500 mM NaCl, 25 mM imidazole, and 3 mM β-mercaptoethanol. Following the batch wash Ni-NTA resin was loaded onto a gravity column and His-tagged protein was eluted with 6 bed volumes of 10 mM Tris/HCl pH 8.0, 200 mM NaCl, 500 mM imidazole, and 3 mM β-mercaptoethanol. Eluted protein was dialyzed overnight against 10 mM Tris/HCl pH 8.0, 200 mM NaCl, and 1 mM DTT and the 6×-His-8×-Arg-SUMO-tag was cleaved using a 20:1 molar ratio of protein:3C protease. The protein was purified by anion exchange chromatography on a HiTrapQ or MonoQ 10/100 GL column (GE Healthcare) via a linear NaCl gradient and twice by size exclusion chromatography using a Superdex S200 26/60 column (GE Healthcare) run in 10 mM Tris/HCl pH 8.0, 200 mM NaCl, 10 mM MgCl2, 1 mM DTT. Proteins were concentrated to ˜12 mg/mL for crystallization and flash frozen for storage.
Biochemical Assay for Activation of Pyruvate Kinase R
Activation of pyruvate kinase R (PKR) and pyruvate kinase M2 (PKM2) were measured using a luminescence based measurement of ATP generation and the Kinase-Glo luminescent kinase reagent kit.

T1 sequence (P30613 14-574): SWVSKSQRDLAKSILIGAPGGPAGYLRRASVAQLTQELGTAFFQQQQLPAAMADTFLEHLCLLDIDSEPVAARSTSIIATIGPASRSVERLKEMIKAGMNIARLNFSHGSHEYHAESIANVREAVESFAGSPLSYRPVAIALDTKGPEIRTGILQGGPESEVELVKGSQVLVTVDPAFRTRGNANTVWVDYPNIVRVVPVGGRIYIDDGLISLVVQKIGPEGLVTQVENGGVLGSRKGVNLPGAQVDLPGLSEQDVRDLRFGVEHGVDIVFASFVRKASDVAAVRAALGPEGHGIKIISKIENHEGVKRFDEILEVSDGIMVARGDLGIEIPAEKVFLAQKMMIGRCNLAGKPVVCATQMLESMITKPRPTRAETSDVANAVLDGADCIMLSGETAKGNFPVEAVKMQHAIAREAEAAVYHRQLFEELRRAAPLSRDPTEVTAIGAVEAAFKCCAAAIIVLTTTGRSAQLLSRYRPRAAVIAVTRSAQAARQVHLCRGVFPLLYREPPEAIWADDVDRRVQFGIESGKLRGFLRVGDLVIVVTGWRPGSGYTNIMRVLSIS

Cc1ccc(C2(C(=O)N3Cc4cn(S(=O)(=O)c5ccc6ncsc6c5)nc4C3)CCOC2)cn1 (single isomer, unassigned) [Compound 31, 6-({5-[(3S)-3-(6-methylpyridin-3-yl)oxolane-3-carbonyl]-2H,4H,5H,6H-pyrrolo[3,4-c]pyrazol-2-yl}sulfonyl)-1,3-benzothiazole or 6-({5-[(3R)-3-(6-methylpyridin-3-yl)oxolane-3-carbonyl]-2H,4H,5H,6H-pyrrolo[3,4-c]pyrazol-2-yl}sulfonyl)-1,3-benzothiazole]
AC50: 173 nM

COc1ccc(S(=O)(=O)n2cc3c(n2)CN(C(=O)[C@H](CO)c2ccccc2)C3)cn1 [Compound 77, (2S)-3-hydroxy-1-{2-[(6-methoxypyridin-3-yl)sulfonyl]-2H,4H,5H,6H-pyrrolo[3,4-c]pyrazol-5-yl}-2-phenylpropan-1-one]
AC50: 8.3 nM

O=C(N1Cc2cn(S(=O)(=O)c3ccc4ncsc4c3)nc2C1)[C@]1(c2ccccn2)CCOC1 (single isomer, unassigned) [Compound 19, 6-({5-[(3S)-3-(pyridin-2-yl)oxolane-3-carbonyl]-2H,4H,5H,6H-pyrrolo[3,4-c]pyrazol-2-yl}sulfonyl)-1,3-benzothiazole or 6-({5-[(3R)-3-(pyridin-2-yl)oxolane-3-carbonyl]-2H,4H,5H,6H-pyrrolo[3,4-c]pyrazol-2-yl}sulfonyl)-1,3-benzothiazole]
AC50: 699 nM
PKR % activation: 59%

O=C([C@H](CO)c1ccccc1)N1Cc2cn(S(=O)(=O)c3cccc(OC(F)F)c3)nc2C1 [Compound 83, (2S)-1-{2-[3-(difluoromethoxy)benzenesulfonyl]-2H,4H,5H,6H-pyrrolo[3,4-c]pyrazol-5-yl}-3-hydroxy-2-phenylpropan-1-one]
AC50: 7.9 nM

O=C([C@H](CO)c1ccccc1)N1Cc2cn(S(=O)(=O)c3ccc4ncsc4c3)nc2C1 (single isomer, unassigned) [Compound 2, (2S)-1-[2-(1,3-benzothiazole-6-sulfonyl)-2H,4H,5H,6H-pyrrolo[3,4-c]pyrazol-5-yl]-3-hydroxy-2-phenylpropan-1-one or (2R)-1-[2-(1,3-benzothiazole-6-sulfonyl)-2H,4H,5H,6H-pyrrolo[3,4-c]pyrazol-5-yl]-3-hydroxy-2-phenylpropan-1-one]
AC50: 556 nM
PKR % activation: 127%

C[C@@H](O)[C@H](C(=O)N1Cc2cn(S(=O)(=O)c3ccc4cn[nH]c4c3)nc2C1)c1ccccc1 (single isomer, unassigned) [Compound 62]
AC50: 47 nM
PKR % activation: 115%

C[C@@H](O)[C@@H](C(=O)N1Cc2cn(S(=O)(=O)c3ccc(OC(F)F)cc3)nc2C1)c1ccccc1Cl (single isomer, unassigned) [Compound 66]
AC50: 13 nM
PKR % activation: 142%

O=C(N1Cc2cn(S(=O)(=O)c3ccc4ncsc4c3)nc2C1)C1(c2ccccc2)CCCN1 (single isomer, unassigned) [Compound 54, 6-({5-[(2S)-2-phenylpyrrolidine-2-carbonyl]-2H,4H,5H,6H-pyrrolo[3,4-c]pyrazol-2-yl}sulfonyl)-1,3-benzothiazole or 6-({2-[(2R)-2-phenylpyrrolidine-2-carbonyl]-2H,4H,5H,6H-pyrrolo[3,4-c]pyrazol-2-yl}sulfonyl)-1,3-benzothiazole]
AC50: 4000 nM

O=C([C@H](O)c1ncccc1F)N1Cc2cn(S(=O)(=O)c3ccc4ncsc4c3)nc2C1 (single isomer, unassigned) [Compound 74, (2R)-1-[2-(1,3-benzothiazole-6-sulfonyl)-2H,4H,5H,6H-pyrrolo[3,4-c]pyrazol-5-yl]-2-(3-fluoropyridin-2-yl)-2-hydroxyethan-1-one or (2S)-1-[2-(1,3-benzothiazole-6-sulfonyl)-2H,4H,5H,6H-pyrrolo[3,4-c]pyrazol-5-yl]-2-(3-fluoropyridin-2-yl)-2-hydroxyethan-1-one]
AC50: 8.5 nM
PKR % activation: 100%

CN1Cc2cc(S(=O)(=O)n3cc4c(n3)CN(C(=O)[C@H](CO)c3ccccc3)C4)ccc2OC1=O [Compound 96, 6-({5-[(2S)-3-hydroxy-2-phenylpropanoyl]-2H,4H,5H,6H-pyrrolo[3,4-c]pyrazol-2-yl}sulfonyl)-3-methyl-3,4-dihydro-2H-1,3-benzoxazin-2-one]
AC50: 53 nM

O=C([C@@H](CO)c1ccccc1)N1Cc2cn(S(=O)(=O)c3ccc(OC(F)F)cc3)nc2C1 (single isomer, unassigned) [Compound 8, (2R)-1-{2-[4-(difluoromethoxy)benzenesulfonyl]-2H,4H,5H,6H-pyrrolo[3,4-c]pyrazol-5-yl}-3-hydroxy-2-phenylpropan-1-one, or (2S)-1-{2-[4-(difluoromethoxy)benzenesulfonyl]-2H,4H,5H,6H-pyrrolo[3,4-c]pyrazol-5-yl}-3-hydroxy-2-phenylpropan-1-one]
AC50: 1980 nM
PKR % activation: 152%

O=C([C@H](CO)c1ncccc1F)N1Cc2cn(S(=O)(=O)c3ccc(OC(F)F)cc3)nc2C1 (single isomer, unassigned) [Compound 89, (2S)-1-{2-[4-(difluoromethoxy)benzenesulfonyl]-2H,4H,5H,6H-pyrrolo [3,4-c]pyrazol-5-yl}-2-(3-fluoropyridin-2-yl)-3-hydroxypropan-1-one or (2R)-1-{2-[4-(difluoromethoxy)benzenesulfonyl]-2H,4H,5H,6H-pyrrolo[3,4-c]pyrazol-5-yl}-2-(3-fluoropyridin-2-yl)-3-hydroxypropan-1-one]
AC50: 7.9 nM
PKR % activation: 132%

O=CN[C@H](C(=O)N1Cc2cn(S(=O)(=O)c3ccc(OC(F)F)cc3)nc2C1)c1ccccc1 [Compound 73, N-[(1S)-2-{2-[4-(difluoromethoxy)benzenesulfonyl]-2H,4H,5H,6H-pyrrolo[3,4-c]pyrazol-5-yl}-2-oxo-1-phenylethyl]formamide]
AC50: 13 nM

CC(CO)(C(=O)N1Cc2cn(S(=O)(=O)c3ccc4ncsc4c3)nc2C1)c1ccccn1 (single isomer, unassigned) [Compound 43, (2R)-1-[2-(1,3-benzothiazole-6-sulfonyl)-2H,4H,5H,6H-pyrrolo[3,4-c]pyrazol-5-yl]-3-hydroxy-2-methyl-2-(pyridin-2-yl)propan-1-one or (2S)-1-[2-(1,3-benzothiazole-6-sulfonyl)-2H,4H,5H,6H-pyrrolo[3,4-c]pyrazol-5-yl]-3-hydroxy-2-methyl-2-(pyridin-2-yl)propan-1-one]
AC50: 75 nM

N[C@@H](C(=O)N1Cc2cn(S(=O)(=O)c3ccc4c(c3)NCCO4)nc2C1)c1ccccc1F [Compound 57, (2R)-2-amino-1-[2-(3,4-dihydro-2H-1,4-benzoxazine-6-sulfonyl)-2H,4H,5H,6H-pyrrolo[3,4-c]pyrazol-5-yl]-2-(2-fluorophenyl)ethan-1-one]
AC50: 17 nM

O=C([C@H](NCCO)c1ccccc1F)N1Cc2cn(S(=O)(=O)c3ccc4ncccc4c3)nc2C1 [Compound 106, (2R)-2-(2-fluorophenyl)-2-[(2-hydroxyethyl)amino]-1-[2-(quinoline-6-sulfonyl)-2H,4H,5H,6H-pyrrolo[3,4-c]pyrazol-5-yl]ethan-1-one]
AC50: 44 nM

N[C@@H](C(=O)N1Cc2cn(S(=O)(=O)c3ccc4c(c3)OCCO4)nc2C1)c1ccccc1F [Compound 58, (2R)-2-amino-1-[2-(2,3-dihydro-1,4-benzodioxine-6-sulfonyl)-2H,4H,5H,6H-pyrrolo[3,4-c]pyrazol-5-yl]-2-(2-fluorophenyl)ethan-1-one]
AC50: 25 nM

O=CN[C@@H](C(=O)N1Cc2cn(S(=O)(=O)c3ccc4ncsc4c3)nc2C1)c1ccccc1Cl [Compound 81, N-[(1R)-2-[2-(1,3-benzothiazole-6-sulfonyl)-2H,4H,5H,6H-pyrrolo[3,4-c]pyrazol-5-yl]-1-(2-chlorophenyl)-2-oxoethyl]formamide]
AC50: 3.8 nM

N[C@@H](C(=O)N1Cc2cn(S(=O)(=O)c3ccc4ncsc4c3)nc2C1)c1ccccc1Cl [Compound 63, (2R)-2-amino-1-[2-(1,3-benzothiazole-6-sulfonyl)-2H,4H,5H,6H-pyrrolo[3,4-c]pyrazol-5-yl]-2-(2-chlorophenyl)ethan-1-one]
AC50: 8.3 nM
